{"source": "patent US5565493A", "about": "“Collagen metabolism ameliorant and its use in the stimulation of hair growth” (Kanebo, Ltd., priority 1990, dated 1996)", "key": {"male mice of ICR strain": {"tested_on": "male mice of ICR strain", "experiment": "Acute toxicity", "assay_type": "in vivo", "details": "single peroral dose 5 g/kg of body weight, 5 male mice, observed 7 days", "method": "An acute toxicity was examined as follows:\nTo 5 male mice of ICR strain (5 weeks old; a weight of 24~28 g), a 25 g/ml conc. MSE aqueous solution that had been prepared by dissolving MSE in refined water was perorally administered once in a dose of […] of the body weight (5 g/kg of the body weight, as MSE)."}, "[1]": {"tested_on": "Rats of hepatic fibrosis induced by CCl4", "experiment": "Effect of MSE in medical treatment for hepatic fibrosis (Hyp in liver and blood, blood plasma biochemistry)", "assay_type": "in vivo, male rats of Wistar origin", "details": "mean ± standard error (n = 5)", "method": "(§1) A 2 ml/kg dose of an equivalent mixture of carbon tetra-chloride (CCl4) and olive oil was administered hypodermically to the back of male rats of Wistar origin (5 weeks old; a weight of 122-134 g; and 5 rats/group) twice a week (on Monday and Thursday) for 10 weeks to produce rats of hepatic fibrosis. A 3 ml/kg dose of a 66.6 mg/ml conc. MSE aqueous solution was administered perorally once a day for continual 7 weeks (except Sundays) from the 4th week after the commencement of the CCl4 administration.\nThen, the whole blood was gathered from the abdominal aorta and collected in a test tube treated with heparin. This was centrifuged to obtain blood plasma. The blood plasma was stored at -80° C. until the under-mentioned biochemical examinations.\n(§2) Further, after gathering the whole-blood, the liver was extracted, weighed and divided into halves under an ice-chilled condition. Then, one of the halves was frozen at -80° C. for quantification of hydroxyproline (hereinafter abbreviated as \"Hyp\") in the liver and the other half was fixed with a 10% formaline solution for a histological examination.\n(§3) On the other hand, there were provided, as an untreated group, a group of the rats of hepatic fibrosis administered with 3 ml/kg of refined water in lieu of the MSE aqueous solution according to the same schedule as the above and, as a group of normal rats, a group bred for 10 weeks without administering CCl4 and the MSE aqueous solution. Blood-gathering and liver-extraction were conducted on these groups in the same manner as the above.\n(§4) Then, using the above each liver and blood plasma, the Hyp in the liver and blood were quantified. Additionally, the Hyp is an index of the quantity of the collagen [Methods of Biochemical Analysis, Vol. 15, p. 25 (1967)]. Further, biochemical examinations of the blood plasma [refer to the under-described items (b)-(h)] and histological examinations of the liver [refer to the under-described item (i)], as indices of liver injury, were conducted.\n(a) Quantities of the Hyp in liver and blood.\n(a-1) Quantity of the Hyp in a liver: about 100 mg of a liver were weighed precisely and added with 250 μl of physiological salt solution. Then, the liver was disintegrated by agitating vigorously (at 28,000 rpm for 30 seconds) with a homogenizer (PHYSCOTRON™, manufactured by Niti-On Medical and Physical Instruments Mfg. Co.).\nThe obtained suspension was centrifuged (at 5,000 rpm for 10 min.) and separated into a supernatant sample and a precipitation sample. By adding a 6N hydrochloric acid, each sample was increased to 2 ml and hydrolyzed at 110° C. for 24 hours. The hydrolyzate solution was centrifugally condensed to remove hydrochloric acid therefrom and the condensate was dissolved in a 0.01N hydrochloric acid.\nThe obtained solution was quantified according to a determination method of amino acids by a high-performance liquid chromatography with a post-column derivatization [Proceedings of the National Academy of Sciences of the U.S.A., Vol. 72, No. 2, p. 619 (1975)] to find quantities of the Hyp in the supernatant sample and precipitation sample, respectively. Then, a quantity of the Hyp per unit weight of the liver (μmol/g of liver) was calculated from the total quantity of the Hyps in the supernatant sample and precipitation sample and the weight of the liver.\n(a-2) Quantity of the Hyp in blood: 100 μl of blood plasma was admixed with 100 μl of a 5 w/v % sulfo-salicylic acid aqueous solution under an ice-chilled condition and centrifugally separated (10,000 rpm; for 3 min.) to obtain a supernatant liquor. The Hyp in the supernatant liquor was quantified according to the above-mentioned determination method of amino acids (μmol/1).\n(b) Quantity of glutamic-pyruvic transaminase (hereinafter abbreviated as \"GPT\"):\n(b-3) Measurement of test sample.\n(c) Quantity of glutamic-oxaloacetic transaminase (hereinafter abbreviated as \"GOT\"): […]"}, "[2]": {"tested_on": "Rats of hepatic fibrosis induced by CCl4", "experiment": "Histological examination of liver", "assay_type": "in vivo, male rats of Wistar origin", "details": "as compared with the untreated group; hematoxylin-eosin", "method": "as §1, §2, §3, §4\n(i) Histological examination of liver: a liver was sliced according to a usual method and, after staining with hematoxylin-eosin, it was microscopically observed."}, "[3]": {"tested_on": "male rabbits of Japanese native strain", "experiment": "Skin irritative test (Draize method)", "assay_type": "in vivo", "method": "Using male rabbits of Japanese native strain (a weight of about 3 kg), a skin irritative test was conducted in accordance with the Draize method [Appraisal of the Safety of Chemicals in Foods, Drugs and Cosmetics, p.46 (1959) edited and published by the Editorial Committee, Association of Food & Drug Official of U.S.A.].\nAn abraded region (injured skin) was produced on the hair-trimmed back of the rabbits. An adhesive plaster for a patch test (RIBBON-AID™ of 1.2 cm×1.6 cm, manufactured by Liba-Tape & Co., Ltd.) was impregnated with 0.1 ml of a 1 wt. % MSE aqueous solution that had been prepared by dissolving MSE in refined water and attached onto the injured skin and a normal skin, respectively. After 24 hours, the plaster was detached to observe erythematic and edematous conditions of the skins. After 48 hours from detaching of the plaster, the same observation was made.\nBased on the above scores and the following equation, primary irritant scores were calculated.\nPrimary irritant score=(A24 +A48)/2+(B24\nThen, irritation degrees of the test compounds were appraised based upon the primary irritative scores and the criteria shown in Table 6."}, "[4]": {"tested_on": "human fibrosarcoma cell strain HT-P11", "experiment": "Action of MSE for promoting procollagenase production (FITC-collagen collagenase activity of culture supernatant)", "assay_type": "cell-based", "description": "A test was carried out using anchorage independent cell strain which is derived from a human fibrosarcoma cell strain HT 1080 (ATCC CCL121) and growable in a serum-free, protein-free medium (referred to as \"human fibrosarcoma cell strain HT-P11\".). Namely, the above-described human fibrosarcoma cell strain HT 1080 (ATCC CCL1211) was cultured in the presence of serum in a flask having a base area of 25 cm^2 and the medium was replaced by the HF-AV medium. Replacing a fifth to half part of the cultured suspension with a fresh HF-AV medium every 3-4 days, the culture was continued in a serum-free, protein-free medium. The thus grown cells were used. The cells were pre-cultured as below to prepare a cell suspension which was then tested.\nThe human fibrosarcoma cell strain HT-P11 was suspended with a density of 1×10^5 cells/ml in the HF-AV medium. Flasks (each having a base area of 75 cm^2) were charged, respectively, with 20 ml of the resulting suspension, and stationarily cultured at 37° C. for 3 days in a 95% air/5% carbon dioxide gas atmosphere. […]\nUsing a type-I collagen labeled with fluorescein isothiocyanate (hereinafter abbreviated as \"FITC\") (a 1 mg/ml conc. FITC/collagen acetic acid solution, manufactured by Cosmo Bio Co.) as a substrate solution, the activity (unit/ml) of the above collagenase solution was determined in accordance with the following procedure."}}, "data": [{"molecule": "CN[C@@H](CO)C(=O)O", "note": "[MSE, N-methyl-L-serine]", "values": [{"measurement": "deaths by administration", "setting": "male mice of ICR strain", "result": "no deaths"}, {"measurement": "f: Quantity of alkaline phosphatase", "setting": "[1]; Bessey-Lowry's method, untreated 1270 ± 90, p < 0.01", "result": "956 ± 114", "unit": "unit/l"}, {"measurement": "e: Quantity of gross bilirubin", "setting": "[1]; Malloy-Evelyn's method, untreated 0.36 ± 0.02, p < 0.1", "result": "0.26 ± 0.05", "unit": "m9/dl"}, {"measurement": "g: Thymol turbidimetric test value (TTT)", "setting": "[1]; blood plasma, untreated 0.26 ± 0.06", "result": "0.18 ± 0.13 U of Kunkel"}, {"measurement": "h: Zinc sulphate turbidimetric test value (ZTT)", "setting": "[1]; blood plasma, untreated 0.78 ± 0.11, p < 0.01", "result": "0.26 ± 0.07 U of Kunkel"}, {"measurement": "d: Quantity of γ-glutamyl transpeptidase (γ-GTP)", "setting": "[1]; blood plasma, untreated 17.6 ± 0.7, p < 0.1", "result": "14.4 ± 1.7", "unit": "U/liter"}, {"measurement": "a-2: Quantity of the Hyp in blood", "setting": "[1]; blood plasma, untreated 30.6 ± 1.1, p < 0.1", "result": "39.1 ± 3.6", "unit": "μmol/1"}, {"measurement": "b: Quantity of glutamic-pyruvic transaminase (GPT)", "setting": "[1]; blood plasma, untreated 948 ± 92, p < 0.01", "result": "537 ± 182", "unit": "Reitman-Frankel unit"}, {"measurement": "c: Quantity of glutamic-oxaloacetic transaminase (GOT)", "setting": "[1]; blood plasma, untreated 2170 ± 184, p < 0.01", "result": "875 ± 324", "unit": "Reitman-Frankel unit"}, {"measurement": "a-1: Quantity of the Hyp in liver", "setting": "[1]; peroral 3 ml/kg of 66.6 mg/ml once a day, 7 weeks, untreated 10.0 ± 1.5, p < 0.1", "result": "6.79 ± 0.82 μmol/g of liver"}, {"measurement": "cholangioepithelial cytogenesis", "setting": "[2]", "result": "mitigated"}, {"measurement": "cholangiolar hyperplasia", "setting": "[2]", "result": "mitigated"}, {"measurement": "diffuse hepatocyte vacuolization", "setting": "[2]", "result": "mitigated"}, {"measurement": "primary irritative score", "setting": "[3]; 0.1 ml of 1 wt. % MSE aqueous solution, injured and normal skin, after 24 and 48 hours", "result": "zero"}, {"measurement": "appraisal of irritation", "setting": "[3]; based on primary irritative score, 1 wt. % MSE aqueous solution", "result": "light irritation"}, {"measurement": "Production of procollagenase", "setting": "[4]; mean ± standard error (N = 3), control 3.7 ± 0.2, 600 μM MSE solution, 0.4 ml added to 2 ml culture, 13 days, P < 0.01", "result": "7.9 ± 0.7 unit/ml of culture solution"}, {"measurement": "Production promotion rate", "setting": "[4]; versus no additives (control)", "result": 114, "unit": "%"}]}]}
